Assay results reported in ChEMBL document CHEMBL5126639, “Semisynthesis and Evaluation of Anti-Inflammatory Activity of the Cassane-Type Diterpenoid Taepeenin F and of Some Synthetic Intermediates” (J Nat Prod, 2022).
Blank lines part the entries; values can stand above or below the compound they belong to. Activity calls are given as the source filed them. No cut-off for these calls is given here.

How the values were obtained:
B16-F10 [1] = test: Induction apoptosis in mouse B16-F10 cells assessed as viable cells at IC80 concentration after 72 hrs by AnnexinV/propidium iodide staining based flow cytometric analysis (reference value: 87.8%); type: functional
RAW264.7 [2] = test: Anti-inflammatory activity against mouse RAW264.7 cells assessed as inhibition of LPS-induced NO production at 0.25 times of IC50 concentration after 24 to 72 hrs by griess reagent assay relative to control; type: functional, cell-based; conditions: time 24-72 hrs
RAW264.7 [3] = test: Inhibition of LPS-induced cell differentiation in mouse RAW264.7 cells at 0.25 to 0.75 IC50 concentration after 72 hrs by propidium iodide staining based flow cytometric analysis; type: functional; conditions: DDE = dose-dependent effect
B16-F10 [4] = test: Induction of cell cycle arrest in mouse B16-F10 cells assessed as cells accumulation at G2/M phase at IC50 concentration after 72 hrs by propidium iodide staining based flow cytometric analysis (reference value: 3.16%); type: functional
B16-F10 [5] = test: Induction apoptosis in mouse B16-F10 cells assessed as increase in apoptotic cells at IC50 to IC80 concentration after 48 to 72 hrs by AnnexinV/propidium iodide staining based flow cytometric analysis; type: functional, cell-based; conditions: time 48-72 hrs, DDE = dose-dependent effect
[6] = Inhibition of LPS-induced cell cycle arrest in mouse RAW264.7 cells assessed as cell accumulation at G0/G1 phase at 0.25 to 0.75 IC50 concentration after 72 hrs by propidium iodide staining based flow cytometric analysis relative to control; type: functional; set-up: scale not given: the % may be the effect or the level left
[7] = Inhibition of LPS-induced cell cycle arrest in mouse RAW264.7 cells assessed as cell accumulation at G2/M phase at 0.25 to 0.75 IC50 concentration after 72 hrs by propidium iodide staining based flow cytometric analysis relative to control; type: functional; set-up: scale not given: the % may be the effect or the level left
B16-F10 [8] = test: Induction apoptosis in mouse B16-F10 cells assessed as necrotic cells at IC80 concentration after 48 hrs by AnnexinV/propidium iodide staining based flow cytometric analysis (reference value: 8.2%); type: functional
B16-F10 [9] = test: Induction apoptosis in mouse B16-F10 cells assessed as necrotic cells at IC50 concentration after 72 hrs by AnnexinV/propidium iodide staining based flow cytometric analysis (reference value: 9.9%); type: functional
B16-F10 [10] = test: Induction apoptosis in mouse B16-F10 cells assessed as viable cells at IC80 concentration after 48 hrs by AnnexinV/propidium iodide staining based flow cytometric analysis (reference value: 86.9%); type: functional
B16-F10 [11] = test: Induction apoptosis in mouse B16-F10 cells assessed as necrotic cells at IC50 concentration after 48 hrs by AnnexinV/propidium iodide staining based flow cytometric analysis (reference value: 8.2%); type: functional
B16-F10 [12] = test: Induction of cell cycle arrest in mouse B16-F10 cells assessed as cells accumulation at G2/M phase at IC80 concentration after 72 hrs by propidium iodide staining based flow cytometric analysis (reference value: 3.16%); type: functional
[13] = Inhibition of LPS-induced cell cycle arrest in mouse RAW264.7 cells assessed as cell accumulation at S phase at 0.25 to 0.75 IC50 concentration after 72 hrs by propidium iodide staining based flow cytometric analysis relative to control; type: functional; set-up: scale not given: the % may be the effect or the level left
HepG2 = test: Antiproliferative activity against human HepG2 cells assessed as reduction in cell viability after 72 hrs by MTT assay; type: functional, cell-based
B16-F10 [14] = test: Induction apoptosis in mouse B16-F10 cells assessed as viable cells at IC50 concentration after 48 hrs by AnnexinV/propidium iodide staining based flow cytometric analysis (reference value: 86.9%); type: functional
B16-F10 [15] = test: Induction apoptosis in mouse B16-F10 cells assessed as early apoptotic cells at IC50 concentration after 72 hrs by AnnexinV/propidium iodide staining based flow cytometric analysis (reference value: 0.1%); type: functional
B16-F10 [16] = test: Induction of cell cycle arrest in mouse B16-F10 cells assessed as cells accumulation at S phase at IC50 concentration after 72 hrs by propidium iodide staining based flow cytometric analysis (reference value: 39.21%); type: functional
HT-29 = test: Antiproliferative activity against human HT-29 cells assessed as reduction in cell viability after 72 hrs by MTT assay; type: functional, cell-based; conditions: HT-29, 72 h
Plasmodium falciparum = test: Antimalarial activity against Plasmodium falciparum FCR-3/A2 erythrocytic stage infected in human erythrocytes assessed as reduction in parasite growth after 48 hrs by Giemsa staining based assay; type: functional, organism-based; conditions: FCR-3/A2, Erythrocyte
RAW264.7 [17] = test: Anti-inflammatory activity against mouse RAW264.7 cells assessed as inhibition of LPS-induced NO production after 24 hrs by griess reagent assay; type: functional, cell-based; conditions: RAW264.7, 24 h
RAW264.7 [18] = test: Anti-inflammatory activity against mouse RAW264.7 cells assessed as inhibition of LPS-induced NO production after 48 hrs by griess reagent assay; type: functional, cell-based; conditions: RAW264.7, 48 h

SMILES: COC(=O)[C@]1(C)CCC[C@]2(C)c3cc(O)c(C=O)c(C)c3CC[C@@H]12
Activity (B16-F10 [1]): 57.9% | inhibition (RAW264.7 [2]): Active | inhibition (RAW264.7 [3]): Dde | Activity (B16-F10 [4]): 0.18% | Activity (B16-F10 [5]): Dde | Activity [6]: 68% | Activity [7]: 0.3% | Activity (B16-F10 [8]): 2.2% | Activity (B16-F10 [9]): 0.9% | Activity (B16-F10 [10]): 64.9% | Activity (B16-F10 [11]): 2.8% | Activity (B16-F10 [12]): 0% | Activity [13]: 69%

SMILES: COC(=O)[C@]1(C)CCC[C@@]2(C)[C@H]1CC=C1C(C)=C(C(C)C)C(=O)C[C@@H]12
Activity (B16-F10 [1]): 47.5% | IC80 (HepG2): 72.4 µM | inhibition (RAW264.7 [2]): Active | Activity (B16-F10 [14]): 84.1% | inhibition (RAW264.7 [3]): Dde | Activity (B16-F10 [4]): 1.12% | Activity (B16-F10 [5]): Dde | Activity [6]: 68% | Activity [7]: 0.3% | Activity (B16-F10 [15]): 0.1% | Activity (B16-F10 [8]): 2.8% | Activity (B16-F10 [9]): 3.8% | Activity (B16-F10 [11]): 2.7% | Activity (B16-F10 [12]): 1.22% | Activity (B16-F10 [16]): 38.83%

SMILES: COC(=O)[C@]1(C)CCC[C@]2(C)c3cc(O)c(C(C)C)c(C)c3CC[C@@H]12
inhibition (RAW264.7 [2]): Active | IC50 (HT-29): 222 µM

SMILES: CC(=O)O[C@H]1CC(C)(C)[C@]2(O)CCc3c(cc(O)c(C=O)c3C)[C@@]2(C)[C@H]1OC(C)=O [NORCAESALPININ C]
IC50 (Plasmodium falciparum): 5 µM

SMILES: COC(=O)[C@]1(C)CCC[C@]2(C)c3cc4c(c(C)c3CC[C@@H]12)CC(=O)O4
inhibition (RAW264.7 [2]): Active

IC50 (RAW264.7 [17]): 25.4 µM
SMILES: CC(=O)O[C@H]1CCC(C)(C)[C@]2(O)[C@@H](OC(C)=O)[C@@H]3OC(=O)[C@@H]4c5ccoc5C[C@@H]([C@@H]34)[C@@]12C [CAESALPININ D]

IC50 (RAW264.7 [18]): 2900 nM
SMILES: C[C@H]1c2ccoc2C[C@H]2[C@H]1[C@H]1O[C@H]1[C@@]1(O)C(C)(C)[C@@H](OC(=O)c3ccccc3)CC[C@]21C

SMILES: COC(=O)[C@]1(C)CCC[C@]2(C)c3cc(O)c(CO)c(C)c3CC[C@@H]12
inhibition (RAW264.7 [2]): Active

IC50 (RAW264.7 [17]): 25.4 µM
SMILES: CC(=O)O[C@H]1[C@@H]2OC(=O)[C@@H]3c4ccoc4C[C@@H]([C@@H]23)[C@@]2(C)[C@@H](O)CCC(C)(C)[C@]12O
